Target: T1, JAK3 (Homo sapiens, UniProt P52333)
T1 sequence (P52333 1-1124): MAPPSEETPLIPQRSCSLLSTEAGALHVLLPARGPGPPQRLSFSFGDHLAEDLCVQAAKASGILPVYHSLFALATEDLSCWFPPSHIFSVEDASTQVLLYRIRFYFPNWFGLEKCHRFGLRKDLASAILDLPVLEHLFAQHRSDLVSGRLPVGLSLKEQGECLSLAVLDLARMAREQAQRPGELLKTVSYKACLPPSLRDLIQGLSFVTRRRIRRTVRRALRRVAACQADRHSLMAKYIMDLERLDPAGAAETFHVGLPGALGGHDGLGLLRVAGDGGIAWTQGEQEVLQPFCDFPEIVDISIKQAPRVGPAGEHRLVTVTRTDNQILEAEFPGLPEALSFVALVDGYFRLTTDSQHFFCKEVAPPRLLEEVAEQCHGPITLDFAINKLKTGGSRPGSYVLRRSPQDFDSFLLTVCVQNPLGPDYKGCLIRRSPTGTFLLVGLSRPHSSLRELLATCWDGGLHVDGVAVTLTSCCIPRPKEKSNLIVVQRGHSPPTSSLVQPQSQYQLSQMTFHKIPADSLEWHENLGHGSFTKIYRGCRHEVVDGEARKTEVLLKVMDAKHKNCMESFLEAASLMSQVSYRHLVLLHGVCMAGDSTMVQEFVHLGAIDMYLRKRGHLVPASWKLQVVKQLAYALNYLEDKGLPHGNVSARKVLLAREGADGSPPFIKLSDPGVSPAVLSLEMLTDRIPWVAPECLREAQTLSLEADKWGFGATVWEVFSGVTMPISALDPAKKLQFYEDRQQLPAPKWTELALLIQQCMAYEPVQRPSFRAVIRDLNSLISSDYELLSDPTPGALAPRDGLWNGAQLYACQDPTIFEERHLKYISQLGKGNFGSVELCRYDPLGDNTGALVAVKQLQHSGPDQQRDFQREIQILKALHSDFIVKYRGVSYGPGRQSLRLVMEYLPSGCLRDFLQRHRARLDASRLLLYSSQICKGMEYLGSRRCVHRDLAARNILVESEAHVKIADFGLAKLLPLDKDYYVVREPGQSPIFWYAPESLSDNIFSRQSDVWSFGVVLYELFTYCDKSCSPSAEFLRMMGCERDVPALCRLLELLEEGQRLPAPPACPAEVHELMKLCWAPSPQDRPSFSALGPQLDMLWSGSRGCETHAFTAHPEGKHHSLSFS
Assay: tyrosine kinase ELISA, DBH inhibition of JAK3 (Example 6)
Format: biochemical
Settings: GAS 1 biotinylated peptide substrate, 0-1250 μM ATP, 30 min at 37° C., read-out: inhibition constant (Ki)
Experimental: Nunc-Immunoplate Maxisorp flat-bottomed capture plates (Nalge Nunc International, Rochester, N.Y.) were coated with 80 μl/well anti-phosphotyrosine PY54 MAb antibody (Transduction Labs, Lexington, Ky.), diluted to 2 μg/ml in coating buffer (10 mM phosphate, pH 7.2+0.02% NaN3), and allowed to adsorb overnight at 4° C. The plates were washed (all washes are 4× with TBST: 25 mM Tris/HCl, pH 8.0, 150 mM NaCl+0.05% Tween-20), and 200 μl/well of blocking buffer (TBST+1% BSA) was added. The plates were sealed and incubated at 37° C. for 60 min or overnight at 4° C., and washed again.
Kinase reactions were run in 50 μl volumes with biotinylated peptide substrate in a round-bottom plate (Corning, Corning, N.Y.). Kinase reactions mixtures contained; 20 μl 50 μM GAS 1 biotinylated peptide (LCBiotin-EGPWLEEEEEAYGWMDF-amide), 0-1250 μM ATP in kinase buffer, 10 μl 50 mM MgCl2 in 2× kinase buffer (50 mM imidazole/HCl, 2 mM EDTA, 0.2 mM EDTA, 0.030% Brij-35, pH 6.8), 10 μl 0-50 μM DBH in water containing 0.2% Pluronic-104 and 3% dimethyl sulfoxide (DMSO), and 10 μl JAK3 enzyme diluted in kinase buffer. A phosphopeptide standard curve (0-10 nM) using kinase buffer as the diluent was also tested.
Kinase reactions were run for 30 min at 37° C., then stopped by adding 15 μl/well of 0.125 M EDTA, pH 6.8. […] Samples were read at A450-A620.

NC1=NC(=O)C(=C2CCNC(=O)c3[nH]ccc32)N1 [DBH, 4-(2-amino-4-oxo-2-imidazolin-5-ylidene)-4,5,6,7-tetrahydropyrrolo(2,3-c) azepine-8-one]
Ki: 286 ± 16 nM

From patent publication US20040209799A1, “JAK/STAT pathway inhibitors and the uses thereof” (priority 2000, published 2004)
